Tests used:
Assay in all cases: Post-emergence test on weeds
Type in all cases: in vivo
Parameters in all cases: key: Level 10: completely dead; Level 9: growth control rate greater than or equal to 90% and less than 100%; Level 8: growth control rate greater than or equal to 80% and less than 90%; Level 7: growth control rate greater than or equal to 70% and less than 80%; Level 6: growth control rate greater than or equal to 60% and less than 70%; Level 5: growth control rate greater than or equal to 50% and less than 60%; Level 4: growth control rate greater than or equal to 40% and less than 50%; Level 3: growth control rate greater than or equal to 30% and less than 40%; Level 2: growth control rate greater than or equal to 20% and less than 30%; Level 1: growth control rate less than 20%; Level 0: no effect
Details in all cases: 3 weeks after application, fresh weight control rate
Digitaria sanguinalis = system: Digitaria sanguinalis
Text: (§1) The activity level criteria for plant damage (i.e., growth control rate) are as follows: • Level 10: completely dead; • Level 9: growth control rate greater than or equal to 90% and less than 100%; • Level 8: growth control rate greater than or equal to 80% and less than 90%; • Level 7: growth control rate greater than or equal to 70% and less than 80%; • Level 6: growth control rate greater than or equal to 60% and less than 70%; • Level 5: growth control rate greater than or equal to 50% and less than 60%; • Level 4: growth control rate greater than or equal to 40% and less than 50%; • Level 3: growth control rate greater than or equal to 30% and less than 40%; • Level 2: growth control rate greater than or equal to 20% and less than 30%; • Level 1: growth control rate less than 20%; • Level 0: no effect.
(§2) The above growth control rates are fresh weight control rates.
(§3) Monocotyledonous and dicotyledonous weed seeds (Descurainia sophia, Capsella bursa-pastoris, Abutilon theophrasti, Galium spurium, Stellaria media, Lithospermum arvense, Rorippa indica, Alopecurus aequalis, Alopecurus japonicus, Eleusine indica, Beckmannia syzigachne, Sclerochloa dura, Erigeron canadensis, Phleum paniculatum, Veronica polita, Bromus japonicus, Aegilops tauschii, Phalaris arundinacea, Amaranthus retroflexus, Chenopodium, Commelina communis, Cichorium endivia, Convolvulus arvensis, Cirsium arvense, Solanum nigrum, Acalypha australis, Digitaria sanguinalis, Echinochloa crus-galli, Setaria viridis, Setaria pumila, Leptochloa chinensis, Monochoria vaginalis, Sagittaria trifolia, Schoenoplectiella juncoides, Cyperus rotundus, Cyperus iria, Cyperus difformis, Fimbristylis, Portulaca oleracea, Xanthium sibiricum, Ipomoea nil, Eschenbachia japonica, etc.) and major crop seeds (wheat, maize, paddy rice, soybean, cotton, oilseed rape, millet, sorghum, potato, sesame, castor plant, etc.) were placed in plastic pots filled with soil and then covered with 0.5-2 cm of soil to allow them to grow in a favorable greenhouse environment. Two weeks after sowing, the test plants were treated at the stage of 2-3 leaves. The test compounds of the present invention were individually dissolved with acetone, then added with Tween® 80, with 1.5 L/ha of methyl oleate emulsifiable concentrate as a synergist, diluted into solutions of certain concentrations using certain amount of water, and sprayed to the plants using a spray tower. After drug application, the experimental results on weeds were collected after 3 weeks of cultivation in a greenhouse. The compounds were applied at 500, 250, 125, 60, 15, and 7.5 g a.i./ha in triplicate, and the results were averaged.

Setaria viridis = system: Setaria viridis
Text: as §1, §2, §3

Veronica polita = system: Veronica polita
Text: as §1, §2, §3

Echinochloa crus-galli = system: Echinochloa crus-galli
Text: as §1, §2, §3

Amaranthus retroflexus = system: Amaranthus retroflexus
Text: as §1, §2, §3

Abutilon theophrasti = system: Abutilon theophrasti
Text: as §1, §2, §3

CC1(C(=O)OC2CCCC2)CC(c2cc(-c3ncc(C(F)(F)F)cc3Cl)c(F)cc2Cl)=NO1 (stereo not drawn) [Compound 43]
10: activity level (growth control rate) Digitaria sanguinalis (Digitaria sanguinalis; 15 g a.i./ha) | activity level (growth control rate) Setaria viridis (Setaria viridis; 15 g a.i./ha) | activity level (growth control rate) Veronica polita (Veronica polita; 15 g a.i./ha) | activity level (growth control rate) Echinochloa crus-galli (Echinochloa crus-galli; 15 g a.i./ha) | activity level (growth control rate) Amaranthus retroflexus (Amaranthus retroflexus; 15 g a.i./ha) | activity level (growth control rate) Abutilon theophrasti (Abutilon theophrasti; 15 g a.i./ha)

CC1(C(=O)OCCF)CC(c2cc(-c3ncc(C(F)(F)F)cc3Cl)c(F)cc2Cl)=NO1 (stereo not drawn) [Compound 44]
10: activity level (growth control rate) Digitaria sanguinalis (Digitaria sanguinalis; 15 g a.i./ha) | activity level (growth control rate) Setaria viridis (Setaria viridis; 15 g a.i./ha) | activity level (growth control rate) Veronica polita (Veronica polita; 15 g a.i./ha) | activity level (growth control rate) Echinochloa crus-galli (Echinochloa crus-galli; 15 g a.i./ha) | activity level (growth control rate) Amaranthus retroflexus (Amaranthus retroflexus; 15 g a.i./ha) | activity level (growth control rate) Abutilon theophrasti (Abutilon theophrasti; 15 g a.i./ha)

CC1(C(=O)OCC(F)(F)F)CC(c2cc(-c3ncc(C(F)(F)F)cc3Cl)c(F)cc2Cl)=NO1 (stereo not drawn) [Compound 45]
10: activity level (growth control rate) Digitaria sanguinalis (Digitaria sanguinalis; 60 g a.i./ha) | activity level (growth control rate) Setaria viridis (Setaria viridis; 60 g a.i./ha) | activity level (growth control rate) Veronica polita (Veronica polita; 60 g a.i./ha) | activity level (growth control rate) Echinochloa crus-galli (Echinochloa crus-galli; 60 g a.i./ha) | activity level (growth control rate) Amaranthus retroflexus (Amaranthus retroflexus; 60 g a.i./ha) | activity level (growth control rate) Abutilon theophrasti (Abutilon theophrasti; 60 g a.i./ha)

COCOC(=O)C1(C)CC(c2cc(-c3ncc(C(F)(F)F)cc3Cl)c(F)cc2Cl)=NO1 (stereo not drawn) [Compound 49]
10: activity level (growth control rate) Digitaria sanguinalis (Digitaria sanguinalis; 15 g a.i./ha) | activity level (growth control rate) Setaria viridis (Setaria viridis; 15 g a.i./ha) | activity level (growth control rate) Veronica polita (Veronica polita; 15 g a.i./ha) | activity level (growth control rate) Echinochloa crus-galli (Echinochloa crus-galli; 15 g a.i./ha) | activity level (growth control rate) Amaranthus retroflexus (Amaranthus retroflexus; 15 g a.i./ha) | activity level (growth control rate) Abutilon theophrasti (Abutilon theophrasti; 15 g a.i./ha)

CSCOC(=O)C1(C)CC(c2cc(-c3ncc(C(F)(F)F)cc3Cl)c(F)cc2Cl)=NO1 (stereo not drawn) [Compound 50]
10: activity level (growth control rate) Digitaria sanguinalis (Digitaria sanguinalis; 15 g a.i./ha) | activity level (growth control rate) Setaria viridis (Setaria viridis; 15 g a.i./ha) | activity level (growth control rate) Veronica polita (Veronica polita; 15 g a.i./ha) | activity level (growth control rate) Echinochloa crus-galli (Echinochloa crus-galli; 15 g a.i./ha) | activity level (growth control rate) Amaranthus retroflexus (Amaranthus retroflexus; 15 g a.i./ha) | activity level (growth control rate) Abutilon theophrasti (Abutilon theophrasti; 15 g a.i./ha)

CC(C#N)OC(=O)C1(C)CC(c2cc(-c3ncc(C(F)(F)F)cc3Cl)c(F)cc2Cl)=NO1 (stereo not drawn) [Compound 51]
10: activity level (growth control rate) Digitaria sanguinalis (Digitaria sanguinalis; 15 g a.i./ha) | activity level (growth control rate) Setaria viridis (Setaria viridis; 15 g a.i./ha) | activity level (growth control rate) Veronica polita (Veronica polita; 15 g a.i./ha) | activity level (growth control rate) Echinochloa crus-galli (Echinochloa crus-galli; 15 g a.i./ha) | activity level (growth control rate) Amaranthus retroflexus (Amaranthus retroflexus; 15 g a.i./ha) | activity level (growth control rate) Abutilon theophrasti (Abutilon theophrasti; 15 g a.i./ha)

CC(C)=NOC(=O)C1(C)CC(c2cc(-c3ncc(C(F)(F)F)cc3Cl)c(F)cc2Cl)=NO1 (stereo not drawn) [Compound 65]
10: activity level (growth control rate) Digitaria sanguinalis (Digitaria sanguinalis; 15 g a.i./ha) | activity level (growth control rate) Setaria viridis (Setaria viridis; 15 g a.i./ha) | activity level (growth control rate) Veronica polita (Veronica polita; 15 g a.i./ha) | activity level (growth control rate) Echinochloa crus-galli (Echinochloa crus-galli; 15 g a.i./ha) | activity level (growth control rate) Amaranthus retroflexus (Amaranthus retroflexus; 15 g a.i./ha) | activity level (growth control rate) Abutilon theophrasti (Abutilon theophrasti; 15 g a.i./ha)

C/C(=N\OC(=O)C1(C)CC(c2cc(-c3ncc(C(F)(F)F)cc3Cl)c(F)cc2Cl)=NO1)C(F)(F)F (stereo not drawn) [Compound 67]
10: activity level (growth control rate) Digitaria sanguinalis (Digitaria sanguinalis; 60 g a.i./ha) | activity level (growth control rate) Setaria viridis (Setaria viridis; 60 g a.i./ha) | activity level (growth control rate) Veronica polita (Veronica polita; 60 g a.i./ha) | activity level (growth control rate) Echinochloa crus-galli (Echinochloa crus-galli; 60 g a.i./ha) | activity level (growth control rate) Amaranthus retroflexus (Amaranthus retroflexus; 60 g a.i./ha) | activity level (growth control rate) Abutilon theophrasti (Abutilon theophrasti; 60 g a.i./ha)

COC/C(C)=N/OC(=O)C1(C)CC(c2cc(-c3ncc(C(F)(F)F)cc3Cl)c(F)cc2Cl)=NO1 (stereo not drawn) [Compound 68]
10: activity level (growth control rate) Digitaria sanguinalis (Digitaria sanguinalis; 60 g a.i./ha) | activity level (growth control rate) Setaria viridis (Setaria viridis; 60 g a.i./ha) | activity level (growth control rate) Veronica polita (Veronica polita; 60 g a.i./ha) | activity level (growth control rate) Echinochloa crus-galli (Echinochloa crus-galli; 60 g a.i./ha) | activity level (growth control rate) Amaranthus retroflexus (Amaranthus retroflexus; 60 g a.i./ha) | activity level (growth control rate) Abutilon theophrasti (Abutilon theophrasti; 60 g a.i./ha)

CCO/C(C)=N/OC(=O)C1(C)CC(c2cc(-c3ncc(C(F)(F)F)cc3Cl)c(F)cc2Cl)=NO1 (stereo not drawn) [Compound 69]
10: activity level (growth control rate) Digitaria sanguinalis (Digitaria sanguinalis; 60 g a.i./ha) | activity level (growth control rate) Setaria viridis (Setaria viridis; 60 g a.i./ha) | activity level (growth control rate) Veronica polita (Veronica polita; 60 g a.i./ha) | activity level (growth control rate) Echinochloa crus-galli (Echinochloa crus-galli; 60 g a.i./ha) | activity level (growth control rate) Amaranthus retroflexus (Amaranthus retroflexus; 60 g a.i./ha) | activity level (growth control rate) Abutilon theophrasti (Abutilon theophrasti; 60 g a.i./ha)

CCOC(=O)/C(C)=N/OC(=O)C1(C)CC(c2cc(-c3ncc(C(F)(F)F)cc3Cl)c(F)cc2Cl)=NO1 (stereo not drawn) [Compound 70]
10: activity level (growth control rate) Digitaria sanguinalis (Digitaria sanguinalis; 60 g a.i./ha) | activity level (growth control rate) Setaria viridis (Setaria viridis; 60 g a.i./ha) | activity level (growth control rate) Veronica polita (Veronica polita; 60 g a.i./ha) | activity level (growth control rate) Echinochloa crus-galli (Echinochloa crus-galli; 60 g a.i./ha) | activity level (growth control rate) Amaranthus retroflexus (Amaranthus retroflexus; 60 g a.i./ha) | activity level (growth control rate) Abutilon theophrasti (Abutilon theophrasti; 60 g a.i./ha)

CC1(C(=O)ON=C(c2ccccc2)c2ccccc2)CC(c2cc(-c3ncc(C(F)(F)F)cc3Cl)c(F)cc2Cl)=NO1 (stereo not drawn) [Compound 71]
10: activity level (growth control rate) Digitaria sanguinalis (Digitaria sanguinalis; 60 g a.i./ha) | activity level (growth control rate) Setaria viridis (Setaria viridis; 60 g a.i./ha) | activity level (growth control rate) Veronica polita (Veronica polita; 60 g a.i./ha) | activity level (growth control rate) Echinochloa crus-galli (Echinochloa crus-galli; 60 g a.i./ha) | activity level (growth control rate) Amaranthus retroflexus (Amaranthus retroflexus; 60 g a.i./ha) | activity level (growth control rate) Abutilon theophrasti (Abutilon theophrasti; 60 g a.i./ha)

CC1(C(=O)O/N=C/c2ccco2)CC(c2cc(-c3ncc(C(F)(F)F)cc3Cl)c(F)cc2Cl)=NO1 (stereo not drawn) [Compound 72]
10: activity level (growth control rate) Digitaria sanguinalis (Digitaria sanguinalis; 60 g a.i./ha) | activity level (growth control rate) Setaria viridis (Setaria viridis; 60 g a.i./ha) | activity level (growth control rate) Veronica polita (Veronica polita; 60 g a.i./ha) | activity level (growth control rate) Echinochloa crus-galli (Echinochloa crus-galli; 60 g a.i./ha) | activity level (growth control rate) Amaranthus retroflexus (Amaranthus retroflexus; 60 g a.i./ha) | activity level (growth control rate) Abutilon theophrasti (Abutilon theophrasti; 60 g a.i./ha)

— patent publication US20250066339A1, “HETEROCYCLE-SUBSTITUTED AROMATIC COMPOUND, METHOD FOR PREPARING SAME, HERBICIDAL COMPOSITION, AND USE THEREOF” (QINGDAO KINGAGROOT CHEMICAL COMPOUND CO., LTD., priority 2022, published 2025)
